Data on 13 molecules can be found in patent US5206234A, “Benzolactam analogs as antagonists of CCK” (priority 1991, dated 1993).

Assay [1] has as its system anxiety (mice). In words: Black/white exploration test (anxiolytic activity). It is filed as in vivo, mouse (male DBA2). The source says:
The black/white exploration test [Crawley et al. Pharmacology, Biochemistry and Behav. 13, 167 (1980)] is a simple animal model of anxiety. Rodents placed in a two compartment box which consists of a brightly lit, white painted side and a dimly lit, black painted side, display a marked preference for the black side of the apparatus. This behavior is caused by the aversive properties of the brightly lit, white painted section. Classical anxiolytic drugs [such as diazepam, see Crawley, supra] and novel anxiolytic drugs [such as 5HT3 antagonists, see Jones et al. Br. J. Pharm.
A. Naive male DBA2 mice (25-30) were housed on a reversed light/dark cycle and tested during the dark phase of the cycle under dim red light. The apparatus consisted of an open topped box (40 cm long×27 cm wide×27 cm high) divided into a small area (2/5) and a large area (3/5) by a partition that extended 20 cm above the walls. There was a 7.5×7.5 cm opening in the partition at floor level. The small compartment was painted black and the large compartment white. The floor of each compartment was marked into 9 cm squares. The white compartment was illuminated by a 100 W tungsten bulb 17 cm above the box and the black compartment by a similarly placed 60 W red bulb.
Animals that had been injected with drug or vehicle were placed individually into the centre of the white area and their behavior observed during a 5 minute period by remote video recording. Four behavioral parameters were recorded every minute: the number of exploratory rears in the white and black sections, the number of line crossings in the black and white sections, the number of transitions between the two sections and the time spent in the black and white sections. Animals were tested in treatment groups of 8-10 and vehicle controls were run on each test day. Data were analysed by ANOVA and Dunnetts test.

The target in assay [2] is T1, CCK receptor (Pancreas) (Rattus norvegicus, UniProt P30551).
T1 construct: The whole pancreas was dissected free of fat tissue and was homogenized; from tissue; host or cells: pancreas membranes of male Sprague-Dawley rats
T1 sequence (P30551 1-444): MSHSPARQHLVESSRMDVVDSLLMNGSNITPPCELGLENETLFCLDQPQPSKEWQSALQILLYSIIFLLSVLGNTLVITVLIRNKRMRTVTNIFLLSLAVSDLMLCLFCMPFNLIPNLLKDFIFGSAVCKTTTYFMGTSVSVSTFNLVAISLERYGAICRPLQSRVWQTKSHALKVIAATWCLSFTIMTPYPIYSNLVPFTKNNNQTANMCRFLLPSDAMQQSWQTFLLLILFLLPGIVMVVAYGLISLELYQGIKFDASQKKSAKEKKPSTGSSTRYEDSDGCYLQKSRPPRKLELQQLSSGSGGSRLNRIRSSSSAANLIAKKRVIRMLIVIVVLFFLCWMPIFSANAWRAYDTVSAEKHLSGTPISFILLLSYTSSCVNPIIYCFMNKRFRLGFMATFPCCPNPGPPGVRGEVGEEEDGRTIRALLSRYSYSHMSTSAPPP
In words: CCK Receptor Binding (Pancreas), inhibition of 125I-CCK-33 binding. Also on record: species or system rat (Male Sprague-Dawley). The note with it: for IC50: 125I-CCK-33, rat pancreas membranes; for Effect on the 125I-CCK receptor binding assay: added as protease inhibitors. As to the method:
CCK-33 was radiolabeled with ^125 I-Bolton Hunter reagent (2000 Ci/mmole) as described by Sankara et al. (J. Biol. Chem. 254: 9349-9351, 1979). Receptor binding was performed according to Innis and Snyder (Proc. Natl. Acad. Sci. 77, 6917-6921, 1980) with the minor modification of adding the additional protease inhibitors, phenylmethane sulfonyl fluoride and o-phenanthroline. The latter two compounds have no effect on the ^125 I-CCK receptor binding assay.
Male Sprague-Dawley rats (200-350 g) were sacrificed by decapitation. The whole pancreas was dissected free of fat tissue and was homogenized in 20 volumes of ice-cold 50 mM Tris HCl (pH 7.7 at 25° C.) with a Brinkmann Polytron PT 10. The homogenates were centrifuged at 48,000 g for 10 min. Pellets were resuspended in Tris Buffer, centrifuged as above and resuspended in 200 volumes of binding assay buffer (50 mM Tris HCl, pH 7.7 at 25° C., 5 mM dithiothrietol, 0.1 mM bacitracin, 1.2 mM phenylmethane sulfonyl fluoride and 0.5 mM o-phenanthroline). […] All assays were run in duplicate or triplicate. The reaction mixtures were incubated at 37° C. for 30 minutes and centrifuged in a Beckman Microfuge (4 minutes) immediately after adding 1 ml of ice-cold incubation buffer. The supernatant was aspirated and discarded, pellets were counted with a Beckman gamma 5000. For Scatchard analysis (Ann. N.Y. Acad. Sci. 51: 660, 1949), ^125 I-CCK-33 was progressively diluted with increasing concentrations of CCK-33.
A Ki value (dissociation constant of inhibitor) of the compounds of Formula I was estimated.

Assay [3] concerns the target T2, CCK receptor (Brain, cerebral cortex) (Cavia porcellus, UniProt H0VZC5).
T2 construct: Cerebral cortex was dissected and used as a receptor source; from tissue; host or cells: cerebral cortex membranes of male Hartley guinea pigs
T2 sequence (H0VZC5 1-426): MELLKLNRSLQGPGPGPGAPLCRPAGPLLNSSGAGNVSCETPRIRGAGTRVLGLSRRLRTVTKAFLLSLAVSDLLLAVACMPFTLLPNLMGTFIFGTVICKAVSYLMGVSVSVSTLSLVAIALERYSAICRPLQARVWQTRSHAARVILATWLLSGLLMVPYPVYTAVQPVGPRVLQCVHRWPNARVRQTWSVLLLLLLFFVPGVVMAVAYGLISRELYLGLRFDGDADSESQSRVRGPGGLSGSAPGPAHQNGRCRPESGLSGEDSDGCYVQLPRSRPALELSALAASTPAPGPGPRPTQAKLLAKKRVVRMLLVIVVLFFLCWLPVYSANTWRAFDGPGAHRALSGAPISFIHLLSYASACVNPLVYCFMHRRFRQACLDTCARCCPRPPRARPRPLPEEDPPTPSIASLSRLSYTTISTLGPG
Nature of the assay: CCK Receptor Binding (Brain), inhibition of 125I-CCK-33 binding. Also on record: species or system guinea pig (Male Hartley). The note with it: head prints ^25 I-CCK; guinea pig cerebral cortex. As to the method: CCK-33 was radiolabeled and the binding was performed according to the description for the pancreas method with modifications according to Saito et al., J. Neurochem. 37:483-490, 1981.
Male Hartley guinea pigs (300-500 g) were sacrificed by decapitation and the brains were removed and placed in ice-cold 50 mM Tris HCl plus 7.58 g/l Trizma-7.4 (pH 7.4 at 25° C.). Cerebral cortex was dissected and used as a receptor source. Each gram of fresh guinea pig brain tissue was homogenized in 10 ml of Tris/Trizma buffer with a Brinkman polytron PT-10. The homogenates were centrifuged at 42,000 g for 15 minutes. Pellets were resuspended in Tris Buffer, centrifuged as above and resuspended in 200 volumes of binding assay buffer (10 mM N-2-hydroxyethyl-piperazine-N'-2-ethane sulfonic acid (HEPES), 5 mM MgCl2, 0.25 mg/ml bacitracin, 1 mM ethylene glycol-bis-(β-aminoethylether-N,N'-tetraacetic acid) (EGTA), and 0.4% bovine serum albumin (BSA)). […] All assays were run in duplicate or triplicate. The reaction mixtures were incubated at 25° C. for 2 hours and centrifuged in a Beckman Microfuge (4 minutes) immediately after adding 1 ml of ice-cold incubation buffer. The supernatant was aspirated and discarded, pellets were counted with a Beckman gamma 5000.

The target of assay [4] is T3, Gastrin receptor (Gastric Glands) (Cavia porcellus, UniProt H0VZC5).
T3 construct: from tissue; host or cells: gastric mucosal glands of male Hartley guinea pigs
T3 sequence (H0VZC5 1-426): T2 sequence (H0VZC5 1-426)
In words: Gastrin Receptor Binding in Guinea Pig Gastric Glands. The note with it: head prints ^25 I-Gastrin, read-out: Receptor binding IC50, 125I-Gastrin Gastric Glands. Also noted: species or system guinea pig (male Hartley). As to the method:
Guinea pig gastric mucosal glands were prepared by the procedure of Berglingh and Obrink Acta Physiol. Scand. 96: 150 (1976) with a slight modification according to Praissman et al. C. J. Receptor Res. 3: (1983). Gastric mucosa from guinea pigs (300-500 g body weight, male Hartley) were washed thoroughly and minced with fine scissors in standard buffer consisting of the following: 130 mM NaCl, 12 mM NaHCO3, 3 mM NaH2 PO4, 3 mM Na2 HPO4, 3 mM K2 HPO4, 2 mM MgSO4, 1 mM CaCl2, 5 mM glucose and 4 mM L-glutamine, 25 mM HEPES at pH 7.4. The minced tissues were washed and then incubated in a 37° C. shaker bath for 40 minutes with the buffer containing 0.1% collagenase and 0.1% BSA and bubbled with 95% O2 and 5% CO2. The tissues were passed twice through a 5 ml glass syringe to liberate the gastric glands, and then filtered through 200 mesh nylon. The filtered glands were centrifuged at 270 g for 5 minutes and washed twice by resuspension and centrifugation.
The washed guinea pig gastric glands prepared as above were resuspended in 25 ml of standard buffer containing 0.25 mg/ml of bacitracin. For binding studies, to 220 μl of gastric glands in triplicate tubes, 10 μl of buffer (for total binding) or gastrin (1 μM final concentration, for nonspecific binding) or test compound and 10 μl of ^125 I-gastrin (NEN, 2200 Ci/mmole, 25 pM final) or ^3 H-pentagastrin (NEN 22 Ci/mmole, 1 nM final) were added. The tubes were aerated with 95% O2 and 5% CO2 and capped. The reaction mixtures after incubation at 25° C. for 30 minutes were filtered under reduced pressure on glass G/F B filters (Whatman) and immediately washed further with 4×4 ml of standard buffer containing 0.1% BSA. The radioactivity on the filters was measured using a Beckman gamma 5500 for ^125 I-gastrin or liquid scintillation counting for ^3 H-pentagastrin.

Take `Cc1cccc(NC(=O)N[C@@H]2N=C(c3ccccc3)c3ccccc3N(C)C2=O)c1` [Compound B, (R)-N-(2,3-dihydro-1-methyl-2-oxo-5-phenyl-1H-1,4-benzodiazepin-3-yl)-N'-(3-methylphenyl)urea]: the “Difference in time spent in the black and white side” value in assay [1] (0.005 ug/kg) was “decreased the difference in time spent in the black and white side”. Further, the “Preference for rearing in the black side” value in assay [1] (0.05 ug/kg) is reported as “abolished the preference for rearing in the black side”. Also, the Active dose range in assay [1] (black/white exploration test, mice) lay in the range of 0.005 to 0.05 µg/kg.

`CC(C)(C)OC(=O)CN1C(=O)C(NC(=O)Nc2ccc(Cl)cc2)CCc2ccccc21` (centres unmarked) [Example 1, 1,1-Dimethylethyl 3-{[[(4-chlorophenyl)amino]carbonyl]amino}-2,3,4,5-tetrahydro-2-oxo-1H-1-benzazepine-1-acetic acid ester]: the IC50 in assay [2] worked out at 350 nM; in assay [3] it was 180 nM; in assay [4] it was 120 nM. In assay [2], `COc1cccc(NC(=O)NC2CCc3ccccc3N(CC(=O)OC(C)(C)C)C2=O)c1` (centres unmarked) [Example 2] had an IC50 of 14000 nM. In the case of `COc1cccc(NC(=O)NC2CCc3ccccc3N(CC(=O)O)C2=O)c1` (centres unmarked) [Example 3], the IC50 is 2100 nM in assay [2], 8600 nM in assay [3] and 3100 nM in assay [4].

`Cc1cccc(NC(=O)NC2CCc3ccccc3N(CC(=O)OC(C)(C)C)C2=O)c1` (centres unmarked) [Example 4] came in with an IC50 in assay [2] of 12 nM. `Cc1cccc(NC(=O)NC2CCc3ccccc3N(CC(=O)O)C2=O)c1` (centres unmarked) [Example 5, 2,3,4,5-Tetrahydro-3-{[[(3-methylphenyl)aminol]carbonyl]amino}-2-oxo-1H-1-benzazepine-1-acetic acid]: in assay [2], the IC50 worked out at 940 nM. Still for that read-out and setting: to `Cc1cccc(NC(=O)NC2CCc3ccccc3N(CC(=O)N3CCCC3)C2=O)c1` (centres unmarked) [Example 6, 1-{[2,3,4,5-Tetrahydro-3-{[[(3-methylphenyl)amino]carbonyl]amino}-2-oxo-1H-1-benzazepin-1-yl]acetyl}pyrrolidine] belongs 80 nM; to `O=C(O)CN1C(=O)C(NC(=O)Nc2cccc3ccccc23)CCc2ccccc21` (centres unmarked) [Example 9, 2,3,4,5-Tetrahydro-3-{[[(1-naphthalenyl)amino]carbonyl]amino}-2-oxo-1H-1-benzazepine-1-acetic acid], 20000 nM. Same read-out and setting: to `CN1CCN(C(=O)CN2C(=O)C(NC(=O)Nc3cccc4ccccc34)CCc3ccccc32)CC1` (centres unmarked) [Example 10, 1-Methyl-4-{[2,3,4,5-tetra-hydro-3-{[[(1-naphthalenyl)amino]carbonyl]amino}-2-oxo-1H-1-benzazepin-1-yl]acetyl}piperazine] belongs 32000 nM.

Consider `Cc1ccc(NC(=O)NC2CCc3ccccc3N(CC(=O)N3CCCC3)C2=O)cc1` (centres unmarked) [Example 13, 1-{[2,3,4,5-Tetrahydro-3-{[[(4-methylphenyl)amino]carbonyl]amino}-2-oxo-1H-1-benzazepin-1-yl]aceyl}pyrrolidine], for which the IC50 in assay [2] stood at 1600 nM. Take `Cc1ccc(NC(=O)NC2CCc3ccccc3N(CC(=O)N3CCN(C)CC3)C2=O)cc1` (centres unmarked) [Example 14, 1-Methyl-4-{[2,3,4,5-tetra-hydro-3-{[[(4-methylphenyl)amino}carbonyl]amino}-2-oxo-1H-1-benzazepin-1-yl]acetyl}piperazine]: the IC50 stood at 13000 nM in assay [2] and 77000 nM in assay [3]. On to `c1cnc2c(c1)ccc1cccnc12` [o-phenanthroline, reference compound], for which the “Effect on the 125I-CCK receptor binding assay” value in assay [2] is recorded as “no effect”.

As for `O=S(=O)(F)Cc1ccccc1` [phenylmethane sulfonyl fluoride, reference compound], the “Effect on the 125I-CCK receptor binding assay” value in assay [2] was “no effect”.

In general, IC50 refers to the point on the concentration scale where inhibition reaches its midpoint.
